ChEMBL document CHEMBL3885881, “DrugMatrix”

Species: Rattus norvegicus
Test: DrugMatrix - Regimen: Daily Repeat
Assay type: toxicity, organism-based, Sprague-Dawley
Parameters: regimen Daily Repeat, gender Male, age 6-8 weeks
Details: in vivo, po, route oral GAVAGE, […]; for ABSOLUTE BASOPHIL / ABSOLUTE EOSINOPHIL / ABSOLUTE LYMPHOCYTE / ABSOLUTE MONOCYTE / ABSOLUTE SEGMENTED NEUTROPHIL / BASOPHIL / EOSINOPHIL / ERYTHROCYTE COUNT / HEMATOCRIT / HEMOGLOBIN / LEUKOCYTE COUNT / LYMPHOCYTE / MEAN CORPUSCULAR HEMOGLOBIN / MEAN CORPUSCULAR HEMOGLOBIN CONCENTRATION / MEAN CORPUSCULAR VOLUME / MONOCYTE / NEUTROPHIL / NUCLEATED RED BLOOD CELLS / PLATELET COUNT: tissue Blood; for ALANINE AMINOTRANSFERASE / ALBUMIN / ALKALINE PHOSPHATASE / ASPARTATE AMINOTRANSFERASE / BLOOD UREA NITROGEN / CARBON DIOXIDE / CHLORIDE / CHOLESTEROL / CREATINE PHOSPHOKINASE / CREATININE / GLUCOSE / LACTATE DEHYDROGENASE / LIPASE / PHOSPHORUS / POTASSIUM / SODIUM / TOTAL BILIRUBIN / TOTAL PROTEIN / URIC ACID: tissue Plasma
[1] = 100 mg/kg, 120 h, dose level Low, time 5 day
[2] = 750 mg/kg, 72 h, dose level High, time 3 day
[3] = 750 mg/kg, 120 h, dose level High, time 5 day

SMILES: CCn1cc(C(=O)O)c(=O)c2cc(F)c(N3CCNCC3)nc21 [ENOXACIN]
- ABSOLUTE BASOPHIL [1]: 0 CELLS/uL
- ABSOLUTE EOSINOPHIL [1]: 262.67 CELLS/uL
- ABSOLUTE LYMPHOCYTE [1]: 12714 CELLS/uL
- ABSOLUTE MONOCYTE [1]: 457 CELLS/uL
- ABSOLUTE SEGMENTED NEUTROPHIL [1]: 1799.67 CELLS/uL
- BASOPHIL [1]: 0%
- EOSINOPHIL [1]: 1.33%
- ERYTHROCYTE COUNT [1]: 5.43 x10E6/uL
- HEMATOCRIT [1]: 34.07%
- HEMOGLOBIN [1]: 13.27 G/DL
- LEUKOCYTE COUNT [1]: 15.23 x10E3/uL
- LYMPHOCYTE [1]: 83.33%
- MEAN CORPUSCULAR HEMOGLOBIN [1]: 24.4 pg
- MEAN CORPUSCULAR HEMOGLOBIN CONCENTRATION [1]: 38.93 G/DL
- MEAN CORPUSCULAR VOLUME [1]: 62.67 fL
- MONOCYTE [1]: 3%
- NEUTROPHIL [1]: 12.33%
- NUCLEATED RED BLOOD CELLS [1]: 0 /100WBC
- PLATELET COUNT [1]: 958 x10E3/uL
- ALANINE AMINOTRANSFERASE [1]: 51.33 u/L
- ALBUMIN [1]: 4.1 G/DL
- ALKALINE PHOSPHATASE [1]: 295.33 u/L
- ASPARTATE AMINOTRANSFERASE [1]: 76.33 u/L
- BLOOD UREA NITROGEN [1]: 14.33 mg/dL
- CARBON DIOXIDE [1]: 23 mmol/L
- CHLORIDE [1]: 101 MEQ/L
- CHOLESTEROL [1]: 78.33 mg/dL
- CREATINE PHOSPHOKINASE [1]: 454 u/L
- CREATININE [1]: 0.19 mg/dL
- GLUCOSE [1]: 186.67 mg/dL
- LACTATE DEHYDROGENASE [1]: 187 u/L
- LIPASE [1]: 6.33 u/L
- PHOSPHORUS [1]: 12.27 mg/dL
- POTASSIUM [1]: 6.41 MEQ/L
- SODIUM [1]: 140.57 MEQ/L
- TOTAL BILIRUBIN [1]: 0.13 mg/dL
- TOTAL PROTEIN [1]: 5.9 G/DL
- URIC ACID [1]: 1.2 mg/dL
- ABSOLUTE BASOPHIL [2]: 0 CELLS/uL
- ABSOLUTE EOSINOPHIL [2]: 0 CELLS/uL
- ABSOLUTE LYMPHOCYTE [2]: 12588.33 CELLS/uL
- ABSOLUTE MONOCYTE [2]: 501.33 CELLS/uL
- ABSOLUTE SEGMENTED NEUTROPHIL [2]: 1877 CELLS/uL
- BASOPHIL [2]: 0%
- EOSINOPHIL [2]: 0%
- ERYTHROCYTE COUNT [2]: 5.55 x10E6/uL
- HEMATOCRIT [2]: 34.83%
- HEMOGLOBIN [2]: 13.57 G/DL
- LEUKOCYTE COUNT [2]: 14.97 x10E3/uL
- LYMPHOCYTE [2]: 84.33%
- MEAN CORPUSCULAR HEMOGLOBIN [2]: 24.47 pg
- MEAN CORPUSCULAR HEMOGLOBIN CONCENTRATION [2]: 38.93 G/DL
- MEAN CORPUSCULAR VOLUME [2]: 62.87 fL
- MONOCYTE [2]: 3.33%
- NEUTROPHIL [2]: 12.33%
- NUCLEATED RED BLOOD CELLS [2]: 0 /100WBC
- PLATELET COUNT [2]: 1299.33 x10E3/uL
- ALANINE AMINOTRANSFERASE [2]: 54 u/L
- ALBUMIN [2]: 3.8 G/DL
- ALKALINE PHOSPHATASE [2]: 389 u/L
- ASPARTATE AMINOTRANSFERASE [2]: 64.33 u/L
- BLOOD UREA NITROGEN [2]: 14.67 mg/dL
- CARBON DIOXIDE [2]: 24.67 mmol/L
- CHLORIDE [2]: 101.67 MEQ/L
- CHOLESTEROL [2]: 66.33 mg/dL
- CREATINE PHOSPHOKINASE [2]: 317.67 u/L
- CREATININE [2]: 0.12 mg/dL
- GLUCOSE [2]: 181.33 mg/dL
- LACTATE DEHYDROGENASE [2]: 80.33 u/L
- LIPASE [2]: 10 u/L
- PHOSPHORUS [2]: 9.8 mg/dL
- POTASSIUM [2]: 5.81 MEQ/L
- SODIUM [2]: 140.9 MEQ/L
- TOTAL BILIRUBIN [2]: 0.1 mg/dL
- TOTAL PROTEIN [2]: 5.63 G/DL
- URIC ACID [2]: 1.27 mg/dL
- ABSOLUTE BASOPHIL [3]: 0 CELLS/uL
- ABSOLUTE EOSINOPHIL [3]: 145 CELLS/uL
- ABSOLUTE LYMPHOCYTE [3]: 12773 CELLS/uL
- ABSOLUTE MONOCYTE [3]: 466 CELLS/uL
- ABSOLUTE SEGMENTED NEUTROPHIL [3]: 1749.33 CELLS/uL
- BASOPHIL [3]: 0%
- EOSINOPHIL [3]: 1%
- ERYTHROCYTE COUNT [3]: 5.4 x10E6/uL
- HEMATOCRIT [3]: 33.53%
- HEMOGLOBIN [3]: 13.27 G/DL
- LEUKOCYTE COUNT [3]: 15.13 x10E3/uL
- LYMPHOCYTE [3]: 84.33%
- MEAN CORPUSCULAR HEMOGLOBIN [3]: 24.57 pg
- MEAN CORPUSCULAR HEMOGLOBIN CONCENTRATION [3]: 39.6 G/DL
- MEAN CORPUSCULAR VOLUME [3]: 62.07 fL
- MONOCYTE [3]: 3%
- NEUTROPHIL [3]: 11.67%
- NUCLEATED RED BLOOD CELLS [3]: 0 /100WBC
- PLATELET COUNT [3]: 1091.67 x10E3/uL
- ALANINE AMINOTRANSFERASE [3]: 57.67 u/L
- ALBUMIN [3]: 4.03 G/DL
- ALKALINE PHOSPHATASE [3]: 396.33 u/L
- ASPARTATE AMINOTRANSFERASE [3]: 69.67 u/L
- BLOOD UREA NITROGEN [3]: 12.67 mg/dL
- CARBON DIOXIDE [3]: 24 mmol/L
- CHLORIDE [3]: 101.33 MEQ/L
- CHOLESTEROL [3]: 61.33 mg/dL
- CREATINE PHOSPHOKINASE [3]: 482.67 u/L
- CREATININE [3]: 0.16 mg/dL
- GLUCOSE [3]: 207 mg/dL
- LACTATE DEHYDROGENASE [3]: 141 u/L
- LIPASE [3]: 6.67 u/L
- PHOSPHORUS [3]: 13.2 mg/dL
- POTASSIUM [3]: 5.17 MEQ/L
- SODIUM [3]: 141.5 MEQ/L
- TOTAL BILIRUBIN [3]: 0.13 mg/dL
- TOTAL PROTEIN [3]: 5.8 G/DL
- URIC ACID [3]: 1.5 mg/dL
